Results as given in patent US10919916B2, “Boron-containing small molecules” (Bill & Melinda Gates Foundation, priority 2016, dated 2021).
Values after ≈ are worked out from the molar mass of the structure shown. Like-named read-outs stand apart in the source and are kept apart here.

How the values were obtained:
Assay type in all cases: cell-based
[1] = test system: Staphylococcus aureus, MRSA (ATCC 33591); assay: Antibacterial MIC assay (microbroth dilution, CLSI); details: read-out: MIC Staphylococcus aureus, MRSA (ATCC 33591)
Procedure, shortened: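 Microbroth dilution per CLSI M07-A10/M100-S25 in cation-adjusted Mueller-Hinton broth, with 3% lysed horse blood added for S. pneumoniae. Inoculum from a 0.5 McFarland direct colony suspension, diluted to 5×10^5 CFU/mL in the well. Compounds were 2-fold serially diluted; MIC read against a growth control.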

[2] = test system: Streptococcus pneumoniae (ATCC 49619); assay: as above
Procedure, shortened: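 CLSI broth microdilution: 2-fold compound dilutions in cation-adjusted Mueller-Hinton broth supplemented with 3% lysed horse blood for S. pneumoniae, inoculum 5×10^5 CFU/mL from a 0.5 McFarland direct colony suspension, with growth control.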

[3] = test system: Wolbachia pipientis in C6/36 cell line; assay: Anti-Wolbachia high-content assay; details: read-out: EC50 Wolbachia pipientis in C6/36 cell line
Method: After 15 minutes, all media was removed from each well and fresh media (no stain) was added. Imaging of each well was accomplished using a Perkin Elmer Operetta high-content imaging system. Five fields per well were imaged using a confocal 60× objective with the Fluorescein filter (excitation filter: 460-490 nm; emission filter: 500-550 nm). Images were analyzed using the Perkin Elmer Harmony software to score each intact cell on the basis of texture complexity of the cytoplasm. Full details can be found in: […]. et al, J. Biomol.

[4] = microbroth dilution, cation-adjusted Mueller-Hinton broth, 35° C. for 16-20 hours
[5] = ATCC49619, microbroth dilution, 3% lysed horse blood, 35° C. for 16-20 hours, read-out: MIC Streptococcus pneumoniae (ATCC 49619)
[6] = C6/36 (wAlbB) cells, 7 days at 26° C., 50% reduction of Wolbachia

SMILES | MIC [1, 4] | MIC [2, 5] | EC50 [3, 6] | MIC [1] | MIC ([2]; ATCC49619, read-out: MIC Streptococcus pneumoniae (ATCC 49619)) | EC50 ([3]; C6/36, […])
C=C[C@]1(C)C[C@@H](OC(=O)COc2ccc3c(c2Cl)B(O)OC3CNC(=O)OC(C)(C)C)[C@]2(C)[C@H](C)CC[C@]3(CCC(=O)[C@H]32)[C@@H](C)[C@@H]1O (stereo partly drawn) [Compound 30, (3aR,4R,5R,7S,8S,9R,9aS,12R)-8-hydroxy-4,7,9,12-tetramethyl-3-oxo-7-vinyldecahydro-4,9a-propanocyclopenta[8]annulen-5-yl 2-((3-(((tert-butoxycarbonyl)amino)methyl)-7-chloro-1-hydroxy-1,3-dihydrobenzo[c][1,2]oxaborol-6-yl)oxy)acetate] | – | – | – | 0.5 to 2 µg/mL (≈ 0.742 to 2.97 µM) | 4 to 32 µg/mL (≈ 5.93 to 47.5 µM) | > 1000 nM
C=C[C@]1(C)C[C@@H](OC(=O)COc2ccc3c(c2)B(O)OC3)[C@]2(C)[C@H](C)CC[C@]3(C[C@H](O)C(=O)[C@H]32)[C@@H](C)[C@@H]1O [Compound 35, (2S,3aR,4R,5R,7S,8S,9R,9aS,12R)-2,8-dihydroxy-4,7,9,12-tetramethyl-3-oxo-7-vinyldecahydro-4,9a-propanocyclopenta[8]annulen-5-yl 2-((1-hydroxy-1,3-dihydrobenzo[c][1,2]oxaborol-6-yl)oxy)acetate] | < 0.25 µg/mL | 0.5 to 2 µg/mL (≈ 0.95 to 3.8 µM) | 30 nM | – | – | –
C=C[C@]1(C)C[C@@H](OC(=O)COc2ccc3c(c2)B(O)OC3)[C@]2(C)[C@H](C)CC[C@]3(C[C@H](F)C(=O)[C@H]32)[C@@H](C)[C@@H]1O [Compound 38, (2S,3aR,4R,5R,7S,8S,9R,9aS,12R)-2-fluoro-8-hydroxy-4,7,9,12-tetramethyl-3-oxo-7-vinyldecahydro-4,9a-propanocyclopenta[8]annulen-5-yl 2-((1-hydroxy-1,3-dihydrobenzo[c][1,2]oxaborol-6-yl)oxy)acetate] | < 0.25 µg/mL | 0.5 to 2 µg/mL (≈ 0.946 to 3.78 µM) | 9 nM | – | – | –
C=C[C@]1(C)C[C@@H](OC(=O)COc2cc3c(cc2F)COB3O)[C@]2(C)[C@H](C)CC[C@]3(C[C@H](F)C(=O)[C@H]32)[C@@H](C)[C@@H]1O [Compound 40, (2S,3aR,4R,5R,7S,8S,9R,9aS,12R)-2-fluoro-8-hydroxy-4,7,9,12-tetramethyl-3-oxo-7-vinyldecahydro-4,9a-propanocyclopenta[8]annulen-5-yl 2-((5-fluoro-1-hydroxy-1,3-dihydrobenzo[c][1,2]oxaborol-6-yl)oxy)acetate] | < 0.25 µg/mL | 0.5 to 2 µg/mL (≈ 0.915 to 3.66 µM) | 18 nM | – | – | –
C=C[C@]1(C)C[C@@H](OC(=O)COc2cc(CNC(=O)OC(C)(C)C)c3c(c2)B(O)OC3)[C@]2(C)[C@H](C)CC[C@]3(C[C@H](O)C(=O)[C@H]32)[C@@H](C)[C@@H]1O [Compound 41, (2S,3aR,4R,5R,7S,8S,9R,9aS,12R)-2,8-dihydroxy-4,7,9,12-tetramethyl-3-oxo-7-vinyldecahydro-4,9a-propanocyclopenta[8]annulen-5-yl 2-((4-(((tert-butoxycarbonyl)amino)methyl)-1-hydroxy-1,3-dihydrobenzo[c][1,2]oxaborol-6-yl)oxy)acetate] | 0.5 to 2 µg/mL (≈ 0.763 to 3.05 µM) | 0.5 to 2 µg/mL (≈ 0.763 to 3.05 µM) | 625 nM | – | – | –
C=C[C@]1(C)C[C@@H](OC(=O)CNc2ccc3c(c2)B(O)OC32CCNCC2)[C@]2(C)[C@H](C)CC[C@]3(CCC(=O)[C@H]32)[C@@H](C)[C@@H]1O [Compound 53, (3aR,4R,5R,7S,8S,9R,9aS,12R)-8-hydroxy-4,7,9,12-tetramethyl-3-oxo-7-vinyldecahydro-4,9a-propanocyclopenta[8]annulen-5-yl (1-hydroxy-1H-spiro[benzo[c][1,2]oxaborole-3,4′-piperidin]-6-yl)glycinate] | 4 to 32 µg/mL (≈ 6.91 to 55.3 µM) | 0.5 to 2 µg/mL (≈ 0.864 to 3.46 µM) | > 1000 nM | – | – | –
C=C[C@]1(C)C[C@@H](OC(=O)NC(=O)c2ccc3c(c2)B(O)OC3)[C@]2(C)[C@H](C)CC[C@]3(CCC(=O)[C@H]32)[C@@H](C)[C@@H]1O [Compound 58, (3aR,4R,5R,7S,8S,9R,9aS,12R)-8-hydroxy-4,7,9,12-tetramethyl-3-oxo-7-vinyldecahydro-4,9a-propanocyclopenta[8]annulen-5-yl (1-hydroxy-1,3-dihydrobenzo[c][1,2]oxaborole-6-carbonyl)carbamate] | < 0.25 µg/mL | 0.5 to 2 µg/mL (≈ 0.955 to 3.82 µM) | 56 nM | – | – | –
C=C[C@]1(C)C[C@@H](OC(=O)COc2ccc3c(c2)B(O)N(C(=O)OC(C)(C)C)N=C3)[C@]2(C)[C@H](C)CC[C@]3(C[C@H](F)C(=O)[C@H]32)[C@@H](C)[C@@H]1O [Compound 73, tert-butyl 7-(2-(((2S,3aR,4R,5R,7S,8S,9R,9aS,12R)-2-fluoro-8-hydroxy-4,7,9,12-tetramethyl-3-oxo-7-vinyldecahydro-4,9a-propanocyclopenta[8]annulen-5-yl)oxy)-2-oxoethoxy)-1-hydroxybenzo[d][1,2,3]diazaborinine-2(1H)-carboxylate] | < 0.25 µg/mL | < 0.25 µg/mL | 1 nM | – | – | –
C=C[C@]1(C)C[C@@H](OC(=O)COc2ccc3c(c2)B(O)NN=C3)[C@]2(C)[C@H](C)CC[C@]3(C[C@H](F)C(=O)[C@H]32)[C@@H](C)[C@@H]1O [Compound 74, (2S,3aR,4R,5R,7S,8S,9R,9aS,12R)-2-fluoro-8-hydroxy-4,7,9,12-tetramethyl-3-oxo-7-vinyldecahydro-4,9a-propanocyclopenta[8]annulen-5-yl 2-((1-hydroxy-1,2-dihydrobenzo[d][1,2,3]diazaborinin-7-yl)oxy)acetate] | < 0.25 µg/mL | < 0.25 µg/mL | 4 nM | – | – | –

Continued, in another order:

MIC [1, 4] | MIC [2, 5] | EC50 [3, 6] | SMILES | MIC [1] | MIC ([2]; ATCC49619, read-out: MIC Streptococcus pneumoniae (ATCC 49619)) | EC50 ([3]; C6/36, […])
< 0.25 µg/mL | 0.5 to 2 µg/mL (≈ 0.918 to 3.67 µM) | 193 nM | C=C[C@]1(C)C[C@@H](OC(=O)COc2ccc3c(c2F)B(O)OC3)[C@]2(C)[C@H](C)CC[C@]3(C[C@H](O)C(=O)[C@H]32)[C@@H](C)[C@@H]1O [Compound 36, (2S,3aR,4R,5R,7S,8S,9R,9aS,12R)-2,8-dihydroxy-4,7,9,12-tetramethyl-3-oxo-7-vinyldecahydro-4,9a-propanocyclopenta[8]annulen-5-yl 2-((7-fluoro-1-hydroxy-1,3-dihydrobenzo[c][1,2]oxaborol-6-yl)oxy)acetate] | – | – | –
< 0.25 µg/mL | 0.5 to 2 µg/mL (≈ 0.918 to 3.67 µM) | 52 nM | C=C[C@]1(C)C[C@@H](OC(=O)COc2cc3c(cc2F)COB3O)[C@]2(C)[C@H](C)CC[C@]3(C[C@H](O)C(=O)[C@H]32)[C@@H](C)[C@@H]1O [Compound 37, (2S,3aR,4R,5R,7S,8S,9R,9aS,12R)-2,8-dihydroxy-4,7,9,12-tetramethyl-3-oxo-7-vinyldecahydro-4,9a-propanocyclopenta[8]annulen-5-yl 2-((5-fluoro-1-hydroxy-1,3-dihydrobenzo[c][1,2]oxaborol-6-yl)oxy)acetate] | – | – | –
< 0.25 µg/mL | 0.5 to 2 µg/mL (≈ 0.915 to 3.66 µM) | 84 nM | C=C[C@]1(C)C[C@@H](OC(=O)COc2ccc3c(c2F)B(O)OC3)[C@]2(C)[C@H](C)CC[C@]3(C[C@H](F)C(=O)[C@H]32)[C@@H](C)[C@@H]1O [Compound 39, (2S,3aR,4R,5R,7S,8S,9R,9aS,12R)-2-fluoro-8-hydroxy-4,7,9,12-tetramethyl-3-oxo-7-vinyldecahydro-4,9a-propanocyclopenta[8]annulen-5-yl 2-((7-fluoro-1-hydroxy-1,3-dihydrobenzo[c][1,2]oxaborol-6-yl)oxy)acetate] | – | – | –
0.5 to 2 µg/mL (≈ 0.929 to 3.71 µM) | < 0.25 µg/mL | 12 nM | C=C[C@]1(C)C[C@@H](OC(=O)COc2ccc3c(c2)B(O)NN=C3)[C@]2(C)[C@H](C)CC[C@]3(C[C@H](O)C(=O)[C@H]32)[C@@H](C)[C@@H]1O [Compound 70, (2S,3aR,4R,5R,7S,8S,9R,9aS,12R)-2,8-dihydroxy-4,7,9,12-tetramethyl-3-oxo-7-vinyldecahydro-4,9a-propanocyclopenta[8]annulen-5-yl 2-((1-hydroxy-1,2-dihydrobenzo[d][1,2,3]diazaborinin-7-yl)oxy)acetate] | – | – | –
0.5 to 2 µg/mL (≈ 0.786 to 3.14 µM) | 0.5 to 2 µg/mL (≈ 0.786 to 3.14 µM) | > 1000 nM | C=C[C@]1(C)C[C@@H](OC(=O)COc2ccc3c(c2F)B(O)N(S(C)(=O)=O)N=C3)[C@]2(C)[C@H](C)CC[C@]3(C[C@H](F)C(=O)[C@H]32)[C@@H](C)[C@@H]1O [Compound 76, (2S,3aR,4R,5R,7S,8S,9R,9aS,12R)-2-fluoro-8-hydroxy-4,7,9,12-tetramethyl-3-oxo-7-vinyldecahydro-4,9a-propanocyclopenta[8]annulen-5-yl 2-((8-fluoro-1-hydroxy-2-(methylsulfonyl)-1,2-dihydrobenzo[d][1,2,3]diazaborinin-7-yl)oxy)acetate] | – | – | –
4 to 32 µg/mL (≈ 6.3 to 50.4 µM) | 0.5 to 2 µg/mL (≈ 0.788 to 3.15 µM) | > 1000 nM | C=C[C@]1(C)C[C@@H](OC(=O)COc2ccc3c(c2F)B(O)N(S(C)(=O)=O)N=C3)[C@]2(C)[C@H](C)CC[C@]3(C[C@H](O)C(=O)[C@H]32)[C@@H](C)[C@@H]1O [Compound 77, (2S,3aR,4R,5R,7S,8S,9R,9aS,12R)-2,8-dihydroxy-4,7,9,12-tetramethyl-3-oxo-7-vinyldecahydro-4,9a-propanocyclopenta[8]annulen-5-yl 2-((8-fluoro-1-hydroxy-2-(methylsulfonyl)-1,2-dihydrobenzo[d][1,2,3]diazaborinin-7-yl)oxy)acetate] | – | – | –
